Laboratory results as given in ChEMBL document CHEMBL1137598, “Synthesis and structure-activity relationship of N-acyl-Gly-, N-acyl-Sar- and N-blocked-boroPro inhibitors of FAP, DPP4, and POP” (Bioorg Med Chem Lett, 2007).

Legend:
[1] = target: Dipeptidyl peptidase 4 (Homo sapiens) (UniProt P27487); test: Inhibition of DPP-4 at 500uM
Prolyl endopeptidase = target: T1, Prolyl endopeptidase (Homo sapiens, UniProt P48147); test: Inhibitory constant against POP
T1 sequence (P48147 whole entry): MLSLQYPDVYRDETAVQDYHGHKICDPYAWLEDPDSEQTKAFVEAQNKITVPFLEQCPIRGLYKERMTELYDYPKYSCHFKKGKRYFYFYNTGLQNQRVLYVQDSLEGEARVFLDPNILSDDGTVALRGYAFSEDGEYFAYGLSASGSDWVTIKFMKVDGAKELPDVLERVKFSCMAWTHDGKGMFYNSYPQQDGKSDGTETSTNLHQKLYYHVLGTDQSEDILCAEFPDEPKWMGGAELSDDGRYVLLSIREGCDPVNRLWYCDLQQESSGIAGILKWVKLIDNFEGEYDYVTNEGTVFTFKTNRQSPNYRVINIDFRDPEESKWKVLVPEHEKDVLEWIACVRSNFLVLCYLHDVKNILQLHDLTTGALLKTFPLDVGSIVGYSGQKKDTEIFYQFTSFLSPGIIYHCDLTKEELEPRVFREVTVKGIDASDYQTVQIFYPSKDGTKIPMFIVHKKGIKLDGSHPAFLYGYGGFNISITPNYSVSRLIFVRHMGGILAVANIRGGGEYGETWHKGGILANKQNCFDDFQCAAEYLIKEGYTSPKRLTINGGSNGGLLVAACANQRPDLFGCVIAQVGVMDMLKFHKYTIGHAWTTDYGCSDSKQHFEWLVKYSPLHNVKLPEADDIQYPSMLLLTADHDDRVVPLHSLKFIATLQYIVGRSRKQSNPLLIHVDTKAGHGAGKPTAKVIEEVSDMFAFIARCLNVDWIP

Sequence of Dipeptidyl peptidase 4 (Homo sapiens) (P27487 whole entry, looked up): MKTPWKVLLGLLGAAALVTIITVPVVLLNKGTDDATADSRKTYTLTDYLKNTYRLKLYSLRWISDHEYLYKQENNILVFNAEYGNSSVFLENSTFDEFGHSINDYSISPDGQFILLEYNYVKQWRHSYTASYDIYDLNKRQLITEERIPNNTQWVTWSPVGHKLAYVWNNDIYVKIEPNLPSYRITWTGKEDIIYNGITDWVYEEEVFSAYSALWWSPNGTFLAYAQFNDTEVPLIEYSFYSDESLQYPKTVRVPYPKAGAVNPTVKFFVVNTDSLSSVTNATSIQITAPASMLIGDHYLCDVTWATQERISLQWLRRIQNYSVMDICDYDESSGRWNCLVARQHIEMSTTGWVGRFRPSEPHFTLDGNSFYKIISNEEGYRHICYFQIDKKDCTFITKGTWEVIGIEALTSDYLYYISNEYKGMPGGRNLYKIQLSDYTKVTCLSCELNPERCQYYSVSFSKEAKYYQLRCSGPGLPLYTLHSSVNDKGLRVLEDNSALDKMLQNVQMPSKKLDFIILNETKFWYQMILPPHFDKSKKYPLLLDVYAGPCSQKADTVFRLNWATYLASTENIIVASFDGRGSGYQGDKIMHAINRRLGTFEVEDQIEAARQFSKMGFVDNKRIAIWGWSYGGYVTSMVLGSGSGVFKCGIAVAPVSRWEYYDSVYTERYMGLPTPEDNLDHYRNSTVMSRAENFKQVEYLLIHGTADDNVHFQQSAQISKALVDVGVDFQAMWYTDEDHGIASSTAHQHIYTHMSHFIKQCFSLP

## CC(=O)N[C@H](C)C(=O)N1CCC[C@H]1B(O)O
[1]
  inhibition: 17%

## CC(C)C(=O)N(C)CC(=O)N1CCC[C@H]1B(O)O
Prolyl endopeptidase
  Ki: 13 nM

## CS(=O)(=O)NCC(=O)N1CCC[C@H]1B(O)O
Prolyl endopeptidase
  Ki: 1360 nM
